Patent publication US9833466B2, “Treatment of leukemia with histone deacetylase inhibitors” (Acetylon Pharmaceuticals Inc., priority 2014, dated 2017)
“Also recorded” adds a separate entry of the source. Blank lines part the entries; values can stand above or below the compound they belong to.

Tests used:
multiple myeloma = conditions: preclinical models of multiple myeloma; cited from earlier work
MV4-11 cells = experiment: MV4-11 tumor growth and survival in Ncr nu/nu mice; assay type: in vivo
Experimental: Ncr nu/nu mice implanted with MV4-11 cells were treated with vehicle, azacitidine (5 mg/kg IV q3d), or azacitidine (5 mg/kg IV q3d) plus Compound A (50 mg/kg IP 5/2/5/2/5/2/5) for up to 4 weeks. (A) Tumor volume was measured twice weekly and the mean tumor volume±SD is plotted. (B) Fold tumor volume change on day 19 relative to day 1 is plotted. (C) Survival curve was plotted.

[1] = Phase I trials; cited from earlier work
[2] = system: AML blast freshly derived from bone marrow of AML patients; experiment: Ex vivo proliferation of AML blast freshly derived from bone marrow; assay type: cell-based; conditions: Homo sapiens; 5 bone marrow samples from AML patients; flow cytometry at 96 h; single agent; read-out: median IC50, live AML cells
Experimental: (A-B), 5 bone marrow samples derived from AML patients were treated with increasing concentrations of azacitidine, Compound A and Compound J and live AML cells were quantified by flow cytometry at 96 h. IC50 values (A) and AUC values (B) were plotted. […] The relative potency of the three drugs are Compound J>azacitidine>Compound A, consistent with the result in FIG. 2. (C) 5 bone marrow samples derived from AML patients were treated with increasing doses of azacitidine with Compound J and live AML cells were quantified by flow cytometry at 96 h. The combination index (Comb IDX) were calculated and median Comb IDX values were plotted.

HDAC6 = molecular target: T1, HDAC6 (Homo sapiens, UniProt Q9UBN7); experiment: HDAC enzyme assays (selectivity for HDAC6); assay type: biochemical
T1 sequence (Q9UBN7 1-1215): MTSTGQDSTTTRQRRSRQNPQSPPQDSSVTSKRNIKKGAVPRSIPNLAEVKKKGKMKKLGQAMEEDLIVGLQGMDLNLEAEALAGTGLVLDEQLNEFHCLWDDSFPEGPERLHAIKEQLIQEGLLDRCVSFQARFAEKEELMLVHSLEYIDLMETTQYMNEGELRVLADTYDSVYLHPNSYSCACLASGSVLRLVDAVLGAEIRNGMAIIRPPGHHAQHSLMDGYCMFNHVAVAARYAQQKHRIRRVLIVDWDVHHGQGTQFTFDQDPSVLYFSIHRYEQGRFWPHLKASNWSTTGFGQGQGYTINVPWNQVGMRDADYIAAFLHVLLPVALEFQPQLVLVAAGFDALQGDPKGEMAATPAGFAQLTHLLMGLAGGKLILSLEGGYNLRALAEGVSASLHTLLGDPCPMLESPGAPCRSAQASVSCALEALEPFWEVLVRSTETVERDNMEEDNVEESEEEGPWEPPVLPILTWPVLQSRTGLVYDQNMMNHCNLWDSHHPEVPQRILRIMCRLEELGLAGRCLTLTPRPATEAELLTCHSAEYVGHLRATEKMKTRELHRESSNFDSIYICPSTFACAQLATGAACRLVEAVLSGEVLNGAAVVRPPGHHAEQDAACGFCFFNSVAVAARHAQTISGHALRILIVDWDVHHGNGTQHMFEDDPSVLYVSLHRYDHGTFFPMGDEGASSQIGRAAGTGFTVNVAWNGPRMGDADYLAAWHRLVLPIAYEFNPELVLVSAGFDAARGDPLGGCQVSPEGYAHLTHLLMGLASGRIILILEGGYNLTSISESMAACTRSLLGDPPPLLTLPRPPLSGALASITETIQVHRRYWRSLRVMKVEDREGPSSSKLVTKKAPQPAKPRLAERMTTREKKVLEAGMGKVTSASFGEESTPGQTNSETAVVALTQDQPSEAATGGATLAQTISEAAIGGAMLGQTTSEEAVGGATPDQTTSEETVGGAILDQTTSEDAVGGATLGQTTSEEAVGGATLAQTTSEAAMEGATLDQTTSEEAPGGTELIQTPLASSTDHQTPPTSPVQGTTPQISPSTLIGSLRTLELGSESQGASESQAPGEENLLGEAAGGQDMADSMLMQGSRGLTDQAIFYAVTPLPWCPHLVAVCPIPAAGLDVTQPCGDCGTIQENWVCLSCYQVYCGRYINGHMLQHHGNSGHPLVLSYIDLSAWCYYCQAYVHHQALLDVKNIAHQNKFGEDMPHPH
Experimental: Compounds for testing are diluted in DMSO to 50 fold the final concentration and a ten point three fold dilution series is made. The compounds are diluted in assay buffer (50 mM HEPES, pH 7.4, 100 mM Kill, 0.001% Tween-20, 0.05% BASE, 20 μM TEC) to 6 fold their final concentration. The HDAC enzymes (purchased from BPS Biosciences) are diluted to 1.5 fold their final concentration in assay buffer. The dipeptide substrate and trypsin at 0.05 μM final concentration are diluted in assay buffer at 6 fold their final concentration. The final enzyme concentrations to use in these assays are 3.3 ng/ml (HDAC1), 0.2 ng/ml (HDAC2), 0.08 ng/ml (HDAC3) and 2 ng/ml (HDAC6). The final substrate concentrations to use are 16 μM (HDAC1), 10 μM (HDAC2), 17 μM (HDAC3) and 14 μM (HDAC6). Five μ1 of compound and 20 μl of enzyme are added to wells of a black, opaque 384 well plate in duplicate. Enzyme and compound are incubated together at room temperature for 10 min. Five μ1 of substrate is added to each well, the plate is shaken for 60 seconds and placed into a Victor 2 microliter plate reader. The development of fluorescence is monitored for 60 min. and the linear rate of the reaction is calculated. The IC50 is determined using Graph Pad Prism by a four parameter curve fit.

HL-60 cells = experiment: HL-60 cell viability, combination with azacitidine (cell titer glo, CalcuSyn CI); assay type: cell-based; conditions: 72 hr, CI less than 1 = synergistic
Experimental: HL-60 cells were treated with increasing doses of azacitidine with Compound E (FIG. 11A) or with Compound A (FIG. 11B) or with Compound H (FIG. 11C) or with Compound C (FIG. 11D), and cell viability was assessed at 72 hr by cell titer glo assay. The combination index (CI) and relative fraction affected (Fa) was determined at each dose level using CalcuSyn software. […] Significant enhancement of azacitidine activity is observed in combination with HDAC1/2 inhibition.

GATA2 = GATA2 expression in MV4-11 AML cell line; assay type: cell-based; conditions: 48 h and 72 h
Experimental: FIG. 16. […] (A-B) MV4-11 cells were plated at 2×10^5 cells/ml at indicated doses for 48 h and 72 h. RNA was prepared and analyzed for GATA2 and GAPDH as internal control.

[3] = Compound A 50 mg/kg IP plus azacitidine 5 mg/kg IV q3d, vs azacitidine or vehicle alone

Structure (SMILES): O=C(CCCCCCNC(=O)c1cnc(N(c2ccccc2)c2ccccc2)nc1)NO [Compound A, 2-(diphenylamino)-N-(7-(hydroxyamino)-7-oxoheptyl)pyrimidine-5-carboxamide]
synergy with bortezomib and immunomodulatory agents (multiple myeloma): synergizes with bortezomib
survival (MV4-11 cells; [3]): further enhanced; also recorded: increased survival in vivo
tumor growth (MV4-11 cells; [3]): further enhanced; also recorded: reduced tumor growth in vivo
fold tumor volume change (MV4-11 cells; Compound A plus azacitidine vs azacitidine or vehicle alone, day 19 relative to day 1): reduced the fold tumor volume change
safety and tolerability [1]: improved safety and tolerability profile
IC50 [2]: 7.2 µM

selective for HDAC6 (HDAC6): about 10 times
Structure (SMILES): O=C(CCCCCCNC(=O)c1cnc(N(c2ccccc2)c2ccccc2Cl)nc1)NO [Compound B, 2-((2-chlorophenyl)(phenyl)amino)-N-(7-(hydroxyamino)-7-oxoheptyl)pyrimidine-5-carboxamide]

Structure (SMILES): Nc1ccc(-c2cccs2)cc1NC(=O)c1ccc2c(c1)cc(C1CC1)n2CCN1CCOCC1 [Compound E, N-(2-amino-5-(thiophen-2-yl)phenyl)-2-cyclopropyl-1-(2-morpholinoethyl)-1H-indole-5-carboxamide]
synergistic interaction with azacitidine on cell viability (CI) (HL-60 cells): strongest synergistic interaction
GATA2 expression (GATA2; combination of azacitidine and Compound E): further induced GATA2 expression; also recorded: synergistically induce GATA2 expression
GATA2 level (GATA2; single agent at 1 uM): induced GATA2 level
